Source: a compilation of properties of binary mixtures (doi:10.1016/j.molliq.2021.116463)

Experiment: xn = mol fraction of the nth substance listed
Details: 100 kPa

[Cl-].c1c[nH+]c[nH]1 + OCC(O)CO
viscosity [mPa·s]
Details | 293.2 K | 303.2 K | 313.2 K | 323.2 K | 333.2 K | 343.2 K | 353.2 K
x1 = 0.1667 | 565 | 397 | – | 196 | 149.3 | 127.7 | 116.4
x1 = 0.25 | 429 | 294 | 207 | – | 60.9 | 37.7 | 24.8
x1 = 0.3333 | 321 | 219 | – | – | 49.6 | 31.2 | 20.6
x1 = 0.5 | 472 | 355 | 285 | 141.2 | – | – | 38.2
